Reference: patent US7148194B2, “Method to increase fibronectin” (Kimberly-Clark Worldwide, Inc., priority 2002, dated 2006)
Entries after “also recorded” stand apart in the source; their conditions may differ.

Columns and labels:
[1] = tested on: C57BL6/KsJ db/db mice; experiment: wound healing in db/db diabetic mice; type: in vivo
Excerpt: The mice were obtained from The Jackson Laboratories and were aged 3–7 months before the onset of the wounding protocol. All mice were anesthetized prior to wounding. Wounds were created in C57BL6/KsJ db/db mice with a 4 mm biopsy punch. Two wounds were introduced onto the upper back of each animal by pulling the skin away from underlying structures and pushing the punch through the isolated skin. Typically, wounds were created to an average depth of 1.7 mm, with a range of 1.3 to 2.2 mm. No muscle involvement occurred during the course of wounding.
Each day the wounds were digitally photographed and wound areas were determined by computer integration of the photographs. All wound treatments and the subsequent data analyses were performed in a blind manner (see e.g., Brown et al., 1994). Wound area at the time of wounding (day 0) is arbitrarily set to a relative value of 1 for all wounds; such that subsequent wound areas are converted to relative wound areas by dividing the wound area at day n by the wound area at day zero.

[2] = target: pro-MMP-9 (Homo sapiens, UniProt P14780); experiment: anti-activation (splicing) assay: conversion of pro-MMP-9 by stromilysin, HPLC; type: biochemical; conditions: pro-MMP-9 with stromilysin, micromolar 19-mer
pro-MMP-9, sequence (P14780 20-707): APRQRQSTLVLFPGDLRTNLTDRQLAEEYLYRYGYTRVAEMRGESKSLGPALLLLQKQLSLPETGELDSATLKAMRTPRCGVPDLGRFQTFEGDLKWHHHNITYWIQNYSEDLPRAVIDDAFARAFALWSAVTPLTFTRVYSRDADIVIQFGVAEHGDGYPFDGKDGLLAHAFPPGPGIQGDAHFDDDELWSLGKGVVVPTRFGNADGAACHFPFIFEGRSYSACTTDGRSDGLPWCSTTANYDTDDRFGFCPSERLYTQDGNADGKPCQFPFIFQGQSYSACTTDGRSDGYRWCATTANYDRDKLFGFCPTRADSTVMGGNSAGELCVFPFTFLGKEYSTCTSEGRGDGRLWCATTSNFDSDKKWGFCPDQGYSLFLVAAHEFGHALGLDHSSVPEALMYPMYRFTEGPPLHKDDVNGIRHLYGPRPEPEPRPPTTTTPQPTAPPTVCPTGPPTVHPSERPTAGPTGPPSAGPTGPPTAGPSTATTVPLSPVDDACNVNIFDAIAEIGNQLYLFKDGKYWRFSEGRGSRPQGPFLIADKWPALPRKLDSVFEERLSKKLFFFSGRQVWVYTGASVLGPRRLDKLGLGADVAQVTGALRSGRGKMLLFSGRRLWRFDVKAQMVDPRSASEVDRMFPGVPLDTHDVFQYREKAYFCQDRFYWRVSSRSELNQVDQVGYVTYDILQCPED
Description: The assay measured how much proenzyme was converted into mature matrix metalloproteinase. Proenzyme pro-MMP-9 (100 μg) was mixed with 0.5 μg of stromilysin in PBS. The reaction was incubated at 35° C. Aliquots were removed from the reaction over an 80-minute time course. […] The zero (injection) time point was a single peak that eluted from the column in approximately 750 seconds. This peak reduced in size as a function of time, and two new peaks appeared. The first peak eluted at approximately 800 seconds, and represents the mature form of MMP-9. The second peak eluted at approximately 1100 seconds, and corresponds to the N-terminal pro-domain fragment. Peak areas were determined by integrating over the elution profile, and the percent area changes were plotted.
The first peak, eluting at approximately 700 seconds, is pro-MMP-9. As the splicing reaction proceeds, this peak decreases in intensity (as marked with the downwards arrow), and two new peaks appear. The first new peak, eluting at approximately 800 seconds, is mature and active MMP-9. The second new peak, eluting at approximately 1050 seconds, is the prodomain. As the splicing reaction proceeds, the intensity of these two peaks increases (as marked with the upwards arrows). When the reaction is complete, there is no detectable pro-MMP-9 remaining.

[3] = target: T1, MMP-9 (Homo sapiens, UniProt P14780); experiment: isothermal titration calorimetry with MMP-9; type: binding; conditions: ITC, 20 mM NaCl
T1 construct: Active MMP-9 enzyme was purchased from Calbiochem; purchased Calbiochem
T1 sequence (P14780 107-707 limits assumed): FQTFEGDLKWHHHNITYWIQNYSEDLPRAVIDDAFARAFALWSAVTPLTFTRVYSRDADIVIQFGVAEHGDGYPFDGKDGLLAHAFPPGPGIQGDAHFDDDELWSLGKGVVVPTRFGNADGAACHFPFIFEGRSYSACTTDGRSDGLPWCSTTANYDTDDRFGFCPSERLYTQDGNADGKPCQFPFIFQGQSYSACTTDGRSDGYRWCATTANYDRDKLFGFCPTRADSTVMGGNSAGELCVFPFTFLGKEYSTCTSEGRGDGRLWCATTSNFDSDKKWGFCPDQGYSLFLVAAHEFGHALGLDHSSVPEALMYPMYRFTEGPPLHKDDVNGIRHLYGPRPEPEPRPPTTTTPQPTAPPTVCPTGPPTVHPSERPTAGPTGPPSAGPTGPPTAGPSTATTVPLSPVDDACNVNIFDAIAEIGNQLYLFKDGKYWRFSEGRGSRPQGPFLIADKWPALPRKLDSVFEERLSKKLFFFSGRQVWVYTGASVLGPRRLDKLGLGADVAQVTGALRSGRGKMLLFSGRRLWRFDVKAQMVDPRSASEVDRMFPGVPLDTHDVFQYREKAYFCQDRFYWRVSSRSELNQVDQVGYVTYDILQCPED
Description: Isothermal titration calorimetry (ITC) was performed with a VP-ITC instrument from MicroCal, Inc. Titrations were carried out by injecting 5 μL of an inhibitor peptide solution (at concentration ranges from 0.5 mM to 2.0 mM) into the 1.4 mL stirred reaction cell. MMP-9 ranged in concentration from 50 to 80 μM in the cell. Both the inhibitor and the enzyme were in 20 mM sodium cacodylate (pH 5.5–7.0), 40 mM NaCl, or 20 mM Tris-HCl (pH 7.0–7.5), 40 mM NaCl. Titrations were conducted between 20° C. and 40° C. Typical experimental conditions for the titrations were a 10 second injection period followed by a 240 second delay between injections for a total of 40 injections. Blank titrations of inhibitor peptide into buffer were performed in order to correct for heats of dilution and mixing.
The independent set of multiple binding sites is the most common model for binding experiment evaluations. The analytical solution for the total heat is determined by (Freire et al., 1990):
[formula] where Q is the total heat, V is the cell volume, ΔH is the enthalpy, M is the macromolecule concentration (the binding partner in the cell), n is the binding stoichiometry, L is the ligand concentration (the binding partner in the syringe), and K is the association constant. Data were fit to this model using Origin version 5 (MicroCal, Inc.). Surface Plasmon Resonance
The peptide was dissolved in 20 mM cacodylate (pH 6.8), 20 mM NaCl at a final concentration of 1 mM. MMP-9 was dialyzed into the same buffer at a final concentration of 20 μM. A series of standard injections were performed as described above.

[4] = target: T2, MMP-2 (Homo sapiens, UniProt P08253); experiment: isothermal titration calorimetry with MMP-2; type: binding; conditions: ITC, 10 mM NaCl at 25° C.
T2 sequence (P08253 110-660): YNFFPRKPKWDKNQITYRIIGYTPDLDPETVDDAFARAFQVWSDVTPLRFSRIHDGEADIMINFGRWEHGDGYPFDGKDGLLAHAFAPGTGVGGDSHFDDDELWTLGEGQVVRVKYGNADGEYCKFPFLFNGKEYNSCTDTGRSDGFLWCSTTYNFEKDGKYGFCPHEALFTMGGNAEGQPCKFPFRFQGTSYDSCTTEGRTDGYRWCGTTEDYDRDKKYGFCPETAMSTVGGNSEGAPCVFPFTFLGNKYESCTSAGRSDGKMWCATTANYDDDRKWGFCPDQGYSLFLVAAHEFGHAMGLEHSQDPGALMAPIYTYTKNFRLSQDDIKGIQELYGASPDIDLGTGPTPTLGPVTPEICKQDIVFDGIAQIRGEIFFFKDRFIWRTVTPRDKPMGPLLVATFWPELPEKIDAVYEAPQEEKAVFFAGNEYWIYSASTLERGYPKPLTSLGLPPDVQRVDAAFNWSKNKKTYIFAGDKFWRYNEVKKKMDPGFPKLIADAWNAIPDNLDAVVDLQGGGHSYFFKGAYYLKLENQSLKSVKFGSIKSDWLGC

[5] = single dose 5 μL of 20 μg/mL at day zero
[6] = MMP-9, 20 mM cacodylate (pH 6.8)
[7] = MMP-2, 20 mM cacodylate (pH 6.8)

CC(C)[C@H](NC(=O)[C@H](CC(=O)O)NC(=O)[C@@H]1CCCN1C(=O)[C@H](CC(N)=O)NC(=O)CNC(=O)[C@H](CS)NC(=O)[C@H](CCCNC(=N)N)NC(=O)[C@@H]1CCCN1)C(=O)N[C@@H](C)C(=O)N[C@@H](CC(N)=O)C(=O)N[C@@H](Cc1ccc(O)cc1)C(=O)N[C@@H](CC(N)=O)C(=O)N[C@@H](Cc1ccccc1)C(=O)N[C@@H](Cc1ccccc1)C(=O)N1CCC[C@H]1C(=O)N[C@@H](CCCNC(=N)N)C(=O)N[C@@H](CCCCN)C(=O)N1CCC[C@H]1C(=O)N[C@@H](CCCCN)C(=O)O [Peptide 19-mer] was tested, and the wound inflammation ([1]; day one post wounding) was “reduction in wound inflammation”, the “day on which wound contraction process began” value [1, 5] was 5 days and the “time to wound closure post wounding” value [1, 5] was 9 days. For the same molecule, the “inhibition of conversion of pro-MMP-9 into prodomain and active enzyme (splicing)” value [2] was “prevents the activation; also recorded: inhibited in a dose dependent manner”, the Stoichiometry ([3]; MMP-9 20 μM, peptide 1 mM, 20 mM cacodylate (pH 6.8)) was 0.975 ± 0.02 and the ΔH [3, 6] was -26.1 ± 1.45 kcal/mol. For the same molecule, the ΔS [3, 6] was −11.6 ± 2.2 cal mol^−1 K^−1, the Stoichiometry ([4]; MMP-2 20 μM, 19-mer 1 mM, 20 mM cacodylate (pH 6.8)) was 0.99 ± 0.03 and the ΔH [4, 7] was -15.4 ± 2.05 kcal/mol. For the same molecule, the ΔS [4, 7] was −21.1 ± 1.8 cal mol^−1 K^−1.
